Experimental data as given in patent US9701662B2, “Herbicidal compounds” (Syngenta Participations AG, priority 2014, dated 2017).

Columns and labels:
Type in all cases: in vivo
[1] = system: Amaranthus retoflexus (AMARE); assay: Post-emergence glasshouse herbicide test; settings: post-emergence (sprayed after 8 days cultivation), 1000 g/h, evaluated after 13 days, five point scale
Procedure: (§1) Seeds of a variety of test species are sown in standard soil in pots (Lolium perenne (LOLPE), Solanum nigrum (SOLNI), Amaranthus retoflexus (AMARE), Setaria faberi (SETFA), Echinochloa crus-galli (ECHCG), Ipomoea hederacea (IPOHE)). After cultivation for one day (pre-emergence) or after 8 days cultivation (post-emergence) under controlled conditions in a glasshouse (at 24/16° C., day/night; 14 hours light; 65% humidity), the plants are sprayed with an aqueous spray solution derived from the formulation of the technical active ingredient in acetone/water (50:50) solution containing 0.5% Tween 20 (polyoxyethelyene sorbitan monolaurate, CAS RN 9005-64-5). Compounds are applied at 1000 g/h. The test plants are then grown in a glasshouse under controlled conditions in a glasshouse (at 24/16° C., day/night; 14 hours light; 65% humidity) and watered twice daily. After 13 days for pre and post-emergence, the test is evaluated for the percentage damage caused to the plant. The biological activities are shown in the following table on a five point scale (5=80-100%; 4=60-79%; 3=40-59%; 2=20-39%; 1=0-19%).

[2] = system: Echinochloa crus-galli (ECHCG); assay: Post-emergence glasshouse herbicide test; settings: post-emergence (sprayed after 8 days cultivation), 1000 g/h, evaluated after 13 days, five point scale
Procedure: as §1

[3] = system: Ipomoea hederacea (IPOHE); assay: Post-emergence glasshouse herbicide test; settings: post-emergence (sprayed after 8 days cultivation), 1000 g/h, evaluated after 13 days, five point scale
Procedure: as §1

Lolium perenne (LOLPE) [4] = assay: Post-emergence glasshouse herbicide test; settings: post-emergence (sprayed after 8 days cultivation), 1000 g/h, evaluated after 13 days, five point scale
Procedure: as §1

Setaria faberi (SETFA) [5] = assay: Post-emergence glasshouse herbicide test; settings: post-emergence (sprayed after 8 days cultivation), 1000 g/h, evaluated after 13 days, five point scale
Procedure: as §1

Solanum nigrum (SOLNI) [6] = assay: Post-emergence glasshouse herbicide test; settings: post-emergence (sprayed after 8 days cultivation), 1000 g/h, evaluated after 13 days, five point scale
Procedure: as §1

[7] = system: Amaranthus retoflexus (AMARE); assay: Pre-emergence glasshouse herbicide test; settings: pre-emergence (sprayed after one day cultivation), 1000 g/h, evaluated after 13 days, five point scale
Procedure: as §1

[8] = system: Echinochloa crus-galli (ECHCG); assay: Pre-emergence glasshouse herbicide test; settings: pre-emergence (sprayed after one day cultivation), 1000 g/h, evaluated after 13 days, five point scale
Procedure: as §1

[9] = system: Ipomoea hederacea (IPOHE); assay: Pre-emergence glasshouse herbicide test; settings: pre-emergence (sprayed after one day cultivation), 1000 g/h, evaluated after 13 days, five point scale
Procedure: as §1

Lolium perenne (LOLPE) [10] = assay: Pre-emergence glasshouse herbicide test; settings: pre-emergence (sprayed after one day cultivation), 1000 g/h, evaluated after 13 days, five point scale
Procedure: as §1

Setaria faberi (SETFA) [11] = assay: Pre-emergence glasshouse herbicide test; settings: pre-emergence (sprayed after one day cultivation), 1000 g/h, evaluated after 13 days, five point scale
Procedure: as §1

Solanum nigrum (SOLNI) [12] = assay: Pre-emergence glasshouse herbicide test; settings: pre-emergence (sprayed after one day cultivation), 1000 g/h, evaluated after 13 days, five point scale
Procedure: as §1

Compound | percentage damage caused to the plant, AMARE, POST Application [1] | percentage damage caused to the plant, ECHCG, POST Application [2] | percentage damage caused to the plant, IPOHE, POST Application [3] | percentage damage caused to the plant, LOLPE, POST Application (Lolium perenne (LOLPE) [4]) | percentage damage caused to the plant, SETFA, POST Application (Setaria faberi (SETFA) [5]) | percentage damage caused to the plant, SOLNI, POST Application (Solanum nigrum (SOLNI) [6]) | percentage damage caused to the plant, AMARE, PRE Application [7] | percentage damage caused to the plant, ECHCG, PRE Application [8] | percentage damage caused to the plant, IPOHE, PRE Application [9] | percentage damage caused to the plant, LOLPE, PRE Application (Lolium perenne (LOLPE) [10]) | percentage damage caused to the plant, SETFA, PRE Application (Setaria faberi (SETFA) [11]) | percentage damage caused to the plant, SOLNI, PRE Application (Solanum nigrum (SOLNI) [12])
Cn1nnnc1NC(=O)c1nn(C)c(=O)c(-c2ccc(Cl)c(Cl)c2)c1Cl [Compound 1.019] | 3 (3=40-59%) | 5 (5=80-100%) | 4 (4=60-79%) | 5 (5=80-100%) | 5 (5=80-100%) | 5 (5=80-100%) | 5 (5=80-100%) | 5 (5=80-100%) | 3 (3=40-59%) | 5 (5=80-100%) | 5 (5=80-100%) | 5 (5=80-100%)
Cc1ccc(C)c(-c2c(Cl)c(C(=O)Nc3nnnn3C)nn(C)c2=O)c1 [Compound 1.020] | 5 (5=80-100%) | 5 (5=80-100%) | 5 (5=80-100%) | 5 (5=80-100%) | 5 (5=80-100%) | 5 (5=80-100%) | 5 (5=80-100%) | 5 (5=80-100%) | 5 (5=80-100%) | 5 (5=80-100%) | 5 (5=80-100%) | 5 (5=80-100%)
Cn1nnnc1NC(=O)c1nn(C)c(=O)c(-c2ccc(C(F)(F)F)cc2)c1Cl [Compound 1.023] | 2 (2=20-39%) | 5 (5=80-100%) | 2 (2=20-39%) | 5 (5=80-100%) | 5 (5=80-100%) | 5 (5=80-100%) | 4 (4=60-79%) | 5 (5=80-100%) | 2 (2=20-39%) | 5 (5=80-100%) | 5 (5=80-100%) | 5 (5=80-100%)
Cn1nnnc1NC(=O)c1nn(C)c(=O)c(-c2cccc(C(F)(F)F)c2)c1Cl [Compound 1.030] | 5 (5=80-100%) | 5 (5=80-100%) | 4 (4=60-79%) | 5 (5=80-100%) | 5 (5=80-100%) | 5 (5=80-100%) | 5 (5=80-100%) | 5 (5=80-100%) | 2 (2=20-39%) | 5 (5=80-100%) | 5 (5=80-100%) | 5 (5=80-100%)
